# Where two headings read alike, the source gives them in different places.
# Tests used:
# [1] = test system: patients with idiopathic PD and levodopa induced dyskinesias (LIDs)
# Method: At the time the study was performed (2009), there was no FDA accepted instrument for measuring treatment efficacy for LIDs. Therefore, several secondary objectives were utilized to assess efficacy including the Unified Dyskinesia Rating Scale (UDysRS).
# A total of 65 male and female subjects with idiopathic PD with LIDs were randomized in the study. The study consisted of 4 phases (FIG. 6A): screening phase (up to 3 weeks), double-blind treatment phase (10 weeks), taper phase (2 weeks), and follow-up phase (2 weeks). The approximate duration of the study for each subject was 17 weeks. […] During the double-blind treatment phase, dosing was begun at Visit 0 at 1 mg every 6 hours (total daily dose [TDD] = 4 mg/day) and escalated upwards at 2-week intervals as follows: 2 mg every 6 hours (TDD = 8 mg/day) at Visit 1 (Week 2); 4 mg every 6 hours (TDD = 16 mg/day) at Visit 2 (Week 4); 6 mg every 6 hours (TDD = 24 mg/day) at Visit 3 (Week 6). Subjects were maintained on 24 mg/day for 4 weeks. The subsequent taper phase (2 weeks total), beginning at Visit 4 (Week 10), consisted of 9 days of drug taper and 5 days off drug prior to Visit 5 (final safety visit). […] Ondansetron was provided by the sponsor and dispensed with each dose escalation step with instructions to use it for nausea and vomiting only during the first 4 days following dose initiation or escalation. […] No other dose down-titration was allowed. Table 5. Dose Escalation Schedule
# A total of 65 patients with idiopathic PD and levodopa induced dyskinesias (LIDs) were randomized. Patients were required to have a diagnosis of idiopathic PD and be within a Hoehn & Yahr Stage II - IV while in a peak "ON" state(levodopa in a therapeutic range). They had to have moderate to severely disabling LIDs for at least 25% of the waking day, as determined by Questions 32 and 33 in Part II of the UPDRS and a Mini-Mental State Examination (MMSE) score of ≥26. Patients with atypical Parkinson disorders, prior deep brain stimulation (DBS), unstable angina, a history of ventricular arrhythmias, or active peptic ulcer or a history of schizophrenia, schizoaffective disorder, or bipolar disease were excluded. Patients who actively smoked were also excluded. Table 9: Demographics
# The drug, or a placebo identical in appearance and packaging, was administered orally 4 times a day in a blinded fashion. Patients were examined while in an "ON" state, when levodopa was in a therapeutic range. During the treatment phase, dosing was begun at 1 mg every 6 hours (total daily dose=4 mg/day) and escalated upwards at 2-week intervals as follows: 2 mg every 6 hours at Visit 1; 4 mg every 6 hours at Visit 2; 6 mg every 6 hours at Visit 3. Patients were maintained on 24 mg/day for 4 weeks. All patients, study site personnel, raters and the sponsor were blinded to treatment assignment.
# The original UPDRS scale was used. […] In the UPDRS Part II, Question 13 is on Falling unrelated to Freezing. […] In Part II, Question 14 is on Freezing when Walking. This is a 5-point item and has two variables freezing and falls. […] Questions 13 and 14 were compared separately (Table 11). […] Table 10: UPDRS Part II (ADL), UPDRS Part III (Motor Examination)
# LIDs were assessed by the UDysRS, the main measure of LIDs (Table 12). […] The study was conducted in accordance with the Declaration of Helsinki and Good Clinical Practice Guidelines. All sites received approval from an institutional review board and written informed consent was obtained from each patient prior to participation. Table 12. Unified Dyskinesia Rating Scale (UDysRS)
# All hypotheses were tested using 2-sided tests with alpha set at the 0.050 level of significance. In general, efficacy data were summarized by treatment group, and safety data were summarized by treatment group and overall.
# [2] = test system: α4β2* nAChR knockout mice
# Description: Multiple receptors exist throughout the body with α1β1*, α3β4* and α7 nAChRs being the major subtypes in the peripheral nervous system and α4β2*, α6β2* and α7 nAChRs the primary ones in the brain. The *asterisk denotes the presence of other nAChR subunits in the receptor.
# [3] = test system: patients with idiopathic PD and levodopa induced dyskinesias (LIDs); conditions: for worsening of Parkinson symptoms (UPDRS Part III, Hoehn and Yahr scales): during the study
# Method: Efficacy was measured with the Unified Dyskinesia Rating Scale (UDysRS), a semi- quantitative assessment, FDA-validated instrument to assess gait, balance and dyskinesia in PD. […] Dosing was begun at 1 mg every 6 hours to a final dose of 24 mg per day.
# All hypotheses were tested using 2-sided tests with alpha set at the 0.050 level of significance. In general, efficacy data were summarized by treatment group, and safety data were summarized by treatment group and overall. In all analyses, assumptions such as normality and homogeneity of variance were examined prior to conducting the proposed parametric statistical procedures. Categorical variables were analyzed by Fisher's exact 2- tailed test and continuous variables were tested under 2-sample t-tests. The equality of variances was examined using an F-test before applying the 2-sample t-test.
# [4] = test system: rats and mice; conditions: oral application, injection and slow-release minipumps
# [5] = in vivo; cited from earlier work
# [6] = Phase 2 data used for sample size calculation
smiles,measurement,setting,value
"CN1CCC[C@H]1c1cccnc1 [Nicotine, (S)-3-[1-methylpyrrolidin-2-yl]pyridine, reference compound]","UDysRS part III, Week 10 result; change from baseline, mean",[1]; [6],5.2
same,"UDysRS walking, Week 10 result; change from baseline, mean",[1]; [6],4.4
same,"PGI-C responders (subjects with a score of 1, 2, or 3)","[1]; Visit 4 (Week 10), 21 responders, p = 0.0048 vs placebo",77.8%
same,"number of LF-ADL responders (subjects with ≥25% reduction from baseline), difference between treatment groups","[1]; Visit 4 (Week 10), p = 0.0453",statistically significant difference
same,Gait-subtest of the UDysRS versus placebo,"[1]; human, in vivo",statistically superior to placebo
same,patient- and physician-rated assessments of efficacy versus placebo,"[1]; human, in vivo",superior to placebo
same,antidyskinetic effect,[2],did not exert an antidyskinetic effect
same,"worsening of Parkinson symptoms (UPDRS Part III, Hoehn and Yahr scales)",[3],no worsening of Parkinsonian symptoms
same,"worsening of Parkinson symptoms (UPDRS Part III, Hoehn and Yahr scales)",[3]; listed as nicotine,did not cause any worsening of the PD symptoms
same,subjects who completed the study,[3]; of 35 randomized,25 subjects
same,subjects who withdrew because of AEs,[3]; of 35 randomized,6 subjects
same,subjects who withdrew because of protocol violations,[3]; of 35 randomized,2 subjects
same,subjects who withdrew from the study,[3]; of 35 randomized,10 subjects
same,subjects who withdrew because of AEs,"[3]; of 35 randomized, listed as nicotine",Six
same,reduction of LIDs,[4],reduced LIDs
same,oral bioavailability,[5],approximately 30%

# Source: patent EP3727043B1 (Golden Gait Biotech, S.L., priority 2017, dated 2019)
